Test results reported in patent US20240398811A1, “PRC2 INHIBITORS FOR USE IN TREATING BLOOD DISORDERS” (ORIC Pharmaceuticals, Inc., priority 2021, published 2024).

Molecular target: purified human, His-tagged PRC2 complex (Homo sapiens (Human), UniProt O75530)
Assay: Hot Spot HMT assay, inhibition of PRC2 enzymatic activity
Assay type: biochemical
Conditions: 10 nM PRC2 complex, 1 μM 3H-SAM, core histone H3, 10-point dose-response
How it was run: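 Five-subunit PRC2 complex (EZH2, EED, SUZ12, AEBP2, RbAp48; 10 nM) preincubated 20 min at 30° C with compound (top 1.0 μM) and 0.05 mg/ml core histone H3 in Tris-HCl, 1% DMSO. Started with 1 μM [3H]SAM, 1 hr at 30° C; tritiated H3 measured by filter binding and scintillation.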

purified human, His-tagged PRC2 complex, sequence (O75530 whole entry): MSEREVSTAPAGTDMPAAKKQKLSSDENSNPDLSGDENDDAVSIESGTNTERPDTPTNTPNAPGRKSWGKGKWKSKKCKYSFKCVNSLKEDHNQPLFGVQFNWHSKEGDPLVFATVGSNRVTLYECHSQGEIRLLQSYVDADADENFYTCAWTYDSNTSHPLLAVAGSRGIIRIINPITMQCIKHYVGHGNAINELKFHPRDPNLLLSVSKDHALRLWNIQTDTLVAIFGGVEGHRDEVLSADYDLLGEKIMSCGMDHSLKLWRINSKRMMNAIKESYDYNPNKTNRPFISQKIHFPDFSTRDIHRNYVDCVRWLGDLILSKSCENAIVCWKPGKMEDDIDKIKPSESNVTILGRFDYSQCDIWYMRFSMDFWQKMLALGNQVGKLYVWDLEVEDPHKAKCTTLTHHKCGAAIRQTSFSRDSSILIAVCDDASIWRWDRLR
purified human, His-tagged PRC2 complex, sequence (Q15910 whole entry partner): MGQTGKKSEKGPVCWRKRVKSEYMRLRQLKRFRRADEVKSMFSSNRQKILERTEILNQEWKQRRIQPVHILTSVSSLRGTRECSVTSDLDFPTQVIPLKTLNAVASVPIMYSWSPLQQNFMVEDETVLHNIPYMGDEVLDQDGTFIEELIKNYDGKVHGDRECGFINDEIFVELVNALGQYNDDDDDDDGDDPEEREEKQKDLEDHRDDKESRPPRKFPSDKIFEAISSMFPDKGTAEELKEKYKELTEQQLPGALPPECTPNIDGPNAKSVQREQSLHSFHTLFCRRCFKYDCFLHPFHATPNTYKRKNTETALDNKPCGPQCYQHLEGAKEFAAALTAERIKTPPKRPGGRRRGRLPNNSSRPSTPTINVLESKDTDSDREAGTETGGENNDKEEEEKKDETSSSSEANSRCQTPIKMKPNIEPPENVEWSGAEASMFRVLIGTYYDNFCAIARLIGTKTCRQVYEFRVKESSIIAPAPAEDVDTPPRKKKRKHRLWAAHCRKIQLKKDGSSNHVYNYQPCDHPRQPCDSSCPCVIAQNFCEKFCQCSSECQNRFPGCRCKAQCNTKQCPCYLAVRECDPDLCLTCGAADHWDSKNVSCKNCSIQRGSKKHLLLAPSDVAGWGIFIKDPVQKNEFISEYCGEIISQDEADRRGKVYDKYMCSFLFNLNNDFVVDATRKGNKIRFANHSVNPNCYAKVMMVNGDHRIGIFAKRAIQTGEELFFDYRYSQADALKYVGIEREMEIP
purified human, His-tagged PRC2 complex, sequence (Q15022 whole entry partner): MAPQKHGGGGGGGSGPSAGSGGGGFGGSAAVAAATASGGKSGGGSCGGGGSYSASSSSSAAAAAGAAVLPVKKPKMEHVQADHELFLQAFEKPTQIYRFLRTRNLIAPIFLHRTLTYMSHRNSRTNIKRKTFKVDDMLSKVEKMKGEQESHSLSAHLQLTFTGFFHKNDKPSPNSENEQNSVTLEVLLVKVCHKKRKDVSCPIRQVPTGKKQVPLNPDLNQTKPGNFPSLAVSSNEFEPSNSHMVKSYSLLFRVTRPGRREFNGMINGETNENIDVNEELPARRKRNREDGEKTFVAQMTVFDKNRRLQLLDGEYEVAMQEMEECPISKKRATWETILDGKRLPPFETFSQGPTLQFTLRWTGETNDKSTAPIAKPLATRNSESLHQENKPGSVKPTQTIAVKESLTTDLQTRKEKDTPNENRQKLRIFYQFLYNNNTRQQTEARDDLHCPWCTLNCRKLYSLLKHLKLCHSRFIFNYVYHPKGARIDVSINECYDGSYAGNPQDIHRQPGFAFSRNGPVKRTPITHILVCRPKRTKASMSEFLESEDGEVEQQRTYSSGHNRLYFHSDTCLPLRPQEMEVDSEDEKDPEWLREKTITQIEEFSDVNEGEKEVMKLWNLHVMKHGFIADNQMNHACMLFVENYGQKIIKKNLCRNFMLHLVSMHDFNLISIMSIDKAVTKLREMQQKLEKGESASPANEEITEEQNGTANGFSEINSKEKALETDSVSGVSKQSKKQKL
purified human, His-tagged PRC2 complex, sequence (Q6ZN18 whole entry partner): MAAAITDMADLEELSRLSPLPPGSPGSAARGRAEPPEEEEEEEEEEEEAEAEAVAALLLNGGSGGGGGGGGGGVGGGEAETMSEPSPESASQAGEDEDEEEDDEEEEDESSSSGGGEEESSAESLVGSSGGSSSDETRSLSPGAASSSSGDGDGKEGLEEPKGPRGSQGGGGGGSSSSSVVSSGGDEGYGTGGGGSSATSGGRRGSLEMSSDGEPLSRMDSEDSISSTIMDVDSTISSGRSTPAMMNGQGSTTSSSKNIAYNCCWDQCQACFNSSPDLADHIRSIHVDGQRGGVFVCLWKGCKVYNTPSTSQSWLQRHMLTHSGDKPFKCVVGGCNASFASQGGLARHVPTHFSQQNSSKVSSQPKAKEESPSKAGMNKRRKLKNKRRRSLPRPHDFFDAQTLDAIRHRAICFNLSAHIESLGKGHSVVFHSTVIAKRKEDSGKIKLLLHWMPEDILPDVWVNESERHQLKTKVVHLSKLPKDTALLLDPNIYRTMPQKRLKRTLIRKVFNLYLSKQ
purified human, His-tagged PRC2 complex, sequence (Q09028 whole entry partner): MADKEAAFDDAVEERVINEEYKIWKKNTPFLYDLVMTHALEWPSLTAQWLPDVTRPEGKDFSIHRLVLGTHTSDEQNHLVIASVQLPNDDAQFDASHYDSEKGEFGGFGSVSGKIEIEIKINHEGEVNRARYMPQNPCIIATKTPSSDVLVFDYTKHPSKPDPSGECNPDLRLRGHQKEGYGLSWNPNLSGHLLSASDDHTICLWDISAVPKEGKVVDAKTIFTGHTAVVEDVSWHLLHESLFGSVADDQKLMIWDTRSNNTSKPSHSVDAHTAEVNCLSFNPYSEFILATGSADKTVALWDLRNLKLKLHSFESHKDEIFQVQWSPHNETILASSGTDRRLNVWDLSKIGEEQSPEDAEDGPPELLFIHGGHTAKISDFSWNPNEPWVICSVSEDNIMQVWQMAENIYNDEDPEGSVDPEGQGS

SMILES	IC50 [nM]
Cc1nn(C[C@@H](C)O)c(C)c1-c1cnc(NCc2c(F)ccc3c2CCO3)n2cc(C#N)nc12 [Example 66, (R)-5-(((5-fluoro-2,3-dihydrobenzofuran-4-yl)methyl)amino)-8-(1-(2-hydroxypropyl)-3,5-dimethyl-1H-pyrazol-4-yl)imidazo[1,2-c]pyrimidine-2-carbonitrile]	100 to 500
CN(C)Cc1cc(F)c(-c2cnc(NCc3c(F)ccc4c3CCO4)n3cc(C#N)nc23)cc1F [Example 39, 8-(4-((dimethylamino)methyl)-2,5-difluorophenyl)-5-(((5-fluoro-2,3-dihydrobenzofuran-4-yl)methyl)amino)imidazo[1,2-c]pyrimidine-2-carbonitrile]	< 100
N#Cc1cn2c(NCc3c(F)ccc4c3CCO4)ncc(-c3cnn(C4CCOCC4)c3)c2n1 [Example 120, 5-(((5-fluoro-2,3-dihydrobenzofuran-4-yl)methyl)amino)-8-(1-(tetrahydro-2H-pyran-4-yl)-1H-pyrazol-4-yl)imidazo[1,2-c]pyrimidine-2-carbonitrile]	> 500
CN(C)Cc1ccc(-c2cnc(NCc3c(F)ccc4c3CCO4)n3cc(C#N)nc23)cc1 [Example 112, 8-(4-((dimethylamino)methyl)phenyl)-5-(((5-fluoro-2,3-dihydrobenzofuran-4-yl)methyl)amino)imidazo[1,2-c]pyrimidine-2-carbonitrile]	< 100
N#Cc1cn2c(NCc3c(F)ccc4c3CCO4)ncc(-c3ccc(C4COCCN4)cc3)c2n1 (stereo not shown) [Example 225, 5-(((5-fluoro-2,3-dihydrobenzofuran-4-yl)methyl)amino)-8-(4-(morpholin-3-yl)phenyl)imidazo[1,2-c]pyrimidine-2-carbonitrile]	< 100
Cc1nn(C(C)C)cc1-c1cnc(NCc2c(F)ccc3c2CCO3)n2cc(C#N)nc12 [Example 23, 5-(((5-fluoro-2,3-dihydrobenzofuran-4-yl)methyl)amino)-8-(1-isopropyl-3-methyl-1H-pyrazol-4-yl)imidazo[1,2-c]pyrimidine-2-carbonitrile]	100 to 500
COCCOc1ccc(-c2cnc(NCc3c(F)ccc4c3CCO4)n3cc(C#N)nc23)c(C)c1 [Example 206, 5-(((5-fluoro-2,3-dihydrobenzofuran-4-yl)methyl)amino)-8-(4-(2-methoxyethoxy)-2-methylphenyl)imidazo[1,2-c]pyrimidine-2-carbonitrile]	100 to 500
Cc1ncccc1-c1cnc(NCc2c(F)ccc3c2CCO3)n2cc(C(N)=O)nc12 [Example 137, 5-(((5-fluoro-2,3-dihydrobenzofuran-4-yl)methyl)amino)-8-(2-methylpyridin-3-yl)imidazo[1,2-c]pyrimidine-2-carboxamide]	< 100
N#Cc1cn2c(NCc3c(F)ccc4c3CCO4)ncc(-c3ccc(C4CCCO4)cc3)c2n1 (stereo not shown) [Example 162, 5-(((5-fluoro-2,3-dihydrobenzofuran-4-yl)methyl)amino)-8-(4-(tetrahydrofuran-2-yl)phenyl)imidazo[1,2-c]pyrimidine-2-carbonitrile]	< 100
Cn1nc(C(F)(F)F)cc1-c1cnc(NCc2c(F)ccc3c2CCO3)n2cc(C#N)nc12 [Example 111, 5-(((5-fluoro-2,3-dihydrobenzofuran-4-yl)methyl)amino)-8-(1-methyl-3-(trifluoromethyl)-1H-pyrazol-5-yl)imidazo[1,2-c]pyrimidine-2-carbonitrile]	< 100
CNCc1cc(-c2cnc(NCc3c(F)ccc4c3CCO4)n3cc(C#N)nc23)n(C)n1 [Example 211, 5-(((5-fluoro-2,3-dihydrobenzofuran-4-yl)methyl)amino)-8-(1-methyl-3-((methylamino)methyl)-1H-pyrazol-5-yl)imidazo[1,2-c]pyrimidine-2-carbonitrile]	< 100
N#Cc1cn2c(NCc3c(F)ccc4c3CCO4)ncc(-c3ccc(N)nc3)c2n1 [Example 127, 8-(6-aminopyridin-3-yl)-5-(((5-fluoro-2,3-dihydrobenzofuran-4-yl)methyl)amino)imidazo[1,2-c]pyrimidine-2-carbonitrile]	< 100
N#Cc1cn2c(NCc3c(F)ccc4c3CCO4)ncc(-c3ccc(CN4CCOCC4)cc3)c2n1 [Example 75, 5-(((5-fluoro-2,3-dihydrobenzofuran-4-yl)methyl)amino)-8-(4-(morpholinomethyl)phenyl)imidazo[1,2-c]pyrimidine-2-carbonitrile]	< 100
N#Cc1cn2c(NCc3c(F)ccc4c3CCO4)ncc(-c3ccc(CN4CCC(F)C4)cc3)c2n1 (stereo not shown) [Example 54, 5-(((5-fluoro-2,3-dihydrobenzofuran-4-yl)methyl)amino)-8-(4-((3-fluoropyrrolidin-1-yl)methyl)phenyl)imidazo[1,2-c]pyrimidine-2-carbonitrile]	< 100
COCCOc1ncc(-c2cnc(NCc3c(F)ccc4c3CCO4)n3cc(C#N)nc23)cn1 [Example 191, 5-(((5-fluoro-2,3-dihydrobenzofuran-4-yl)methyl)amino)-8-(2-(2-methoxyethoxy)pyrimidin-5-yl)imidazo[1,2-c]pyrimidine-2-carbonitrile]	100 to 500
N#Cc1cn2c(NCc3c(F)ccc4c3CCO4)ncc(-c3ccc(C4CC(=O)N4)cc3)c2n1 (stereo not shown) [Example 222, 5-(((5-fluoro-2,3-dihydrobenzofuran-4-yl)methyl)amino)-8-(4-(4-oxoazetidin-2-yl)phenyl)imidazo[1,2-c]pyrimidine-2-carbonitrile]	< 100
Cc1nc(OC(C)C)ncc1-c1cnc(NCc2c(F)ccc3c2CCO3)n2cc(C#N)nc12 [Example 89, 5-(((5-fluoro-2,3-dihydrobenzofuran-4-yl)methyl)amino)-8-(2-isopropoxy-4-methylpyrimidin-5-yl)imidazo[1,2-c]pyrimidine-2-carbonitrile]	< 100
Cn1nccc1-c1cnc(NCc2c(F)ccc3c2CCO3)n2cc(C#N)nc12 [Example 114, 5-(((5-fluoro-2,3-dihydrobenzofuran-4-yl)methyl)amino)-8-(1-methyl-1H-pyrazol-5-yl)imidazo[1,2-c]pyrimidine-2-carbonitrile]	< 100
CN(C)C(=O)c1ccc(-c2cnc(NCc3c(F)ccc4c3CCO4)n3cc(C#N)nc23)cc1F [Example 36, 4-(2-cyano-5-(((5-fluoro-2,3-dihydrobenzofuran-4-yl)methyl)amino)imidazo[1,2-c]pyrimidin-8-yl)-2-fluoro-N,N-dimethylbenzamide]	< 100
COCCOc1ccc(-c2cnc(NCc3c(F)ccc4c3CCO4)n3cc(C#N)nc23)cn1 [Example 158, 5-(((5-fluoro-2,3-dihydrobenzofuran-4-yl)methyl)amino)-8-(6-(2-methoxyethoxy)pyridin-3-yl)imidazo[1,2-c]pyrimidine-2-carbonitrile]	100 to 500
N#Cc1cn2c(NCc3c(F)ccc4c3CCO4)ncc(-c3n[nH]cc3Br)c2n1 [Example 232, 8-(4-bromo-1H-pyrazol-3-yl)-5-(((5-fluoro-2,3-dihydrobenzofuran-4-yl)methyl)amino)imidazo[1,2c]pyrimidine-2-carbonitrile]	100 to 500
Cc1cc(S(=O)(=O)C(F)(F)F)ccc1-c1cnc(NCc2c(F)ccc3c2CCO3)n2cc(C#N)nc12 [Example 184, 5-(((5-fluoro-2,3-dihydrobenzofuran-4-yl)methyl)amino)-8-(2-methyl-4-((trifluoromethyl)sulfonyl)phenyl)imidazo[1,2-c]pyrimidine-2-carbonitrile]	100 to 500
